From patent US10450346B2, “Immunotherapy against several tumors of the blood, in particular chronic lymphoid leukemia (CLL)” (Immatics biotechnologies GmbH, priority 2014, dated 2019)
One block for each substance: values may come before it.

Legend:
MHC class I = assay: MHC binding assay (peptide-ligand exchange, β2m ELISA); parameters: species or system human; conditions: yield of UV-exchange reaction
Source text: Candidate peptides for T cell based therapies according to the present invention were further tested for their MHC binding capacity (affinity). The individual peptide-MHC complexes were produced by peptide-ligand exchange, where a cleavage-sensitive peptide is cleaved, and exchanged with the peptide of interest as analyzed. Only peptide candidates that can effectively bind and stabilize the peptide-receptive MHC molecules prevent dissociation of the MHC complexes. To determine the yield of the exchange reaction, an ELISA was performed based on the detection of the light chain (β2m) of stabilized MHC complexes. The assay was performed as generally described in Rodenko et al. (Rodenko et al., Nat Protoc. 1 (2006): 1120-1132).
96 well MAXISorp plates (NUNC) were coated over night with 2 ug/ml streptavidin in PBS at room temperature, washed 4× and blocked for 1 h at 37° C. in 2% BSA containing blocking buffer. Refolded HLA-A*0201/MLA-001 monomers served as standards, covering the range of 15-500 ng/ml. Peptide-MHC monomers of the UV-exchange reaction were diluted 100 fold in blocking buffer. Samples were incubated for 1 h at 37° C., washed four times, incubated with 2 ug/ml HRP conjugated anti-β2m for 1 h at 37° C., washed again and detected with TMB solution that is stopped with […]. Absorption was measured at 450 nm. […]

[1] = tested on: peptide-specific CD8+ T cells of CLL patient PBMC; assay: Intracellular IFN-γ and TNF-α staining; type: cell-based, human; conditions: peptide stimulated CLL patient PBMC
Procedure: PBMC from CLL patients and healthy volunteers were cultured in RPMI1640 medium (Gibco) supplemented with 10% pooled human serum (PHS, produced in-house), […] β-mercaptoethanol (Roth, Karlsruhe, Germany) and 1% penicillin/streptomycin (GE). For CD8^+ T cell stimulation, PBMC were thawed and pulsed with 1 μg/ml per peptide. Peptide-pulsed PBMC (5-6×10^6 cells/ml) were cultured at 37° C. and 5% CO2 for 12 days. On day 0 and day […] IL-4 (R&D Systems, Minneapolis, Minn., USA) and 5 ng/ml IL-7 (Promokine, Heidelberg, Germany) were added to the culture medium. On days 3, 5, 7 and 9, 2 ng/ml IL-2 (R&D Systems) were added to the culture medium. Peptide-stimulated PBMC were functionally characterized by ELISPOT assays on day 12 and by intracellular cytokine staining on day 13 respectively. For CD4^+ T-cell stimulation, culture was performed as described for CD8^+ T cells with 2 modifications: pulsing was carried out with 10 μg/ml of HLA class II peptide and no IL-4 and IL-7 was added.
The frequency and functionality of peptide-specific CD8^+ T cells was analyzed by intracellular IFN-γ and TNF-α staining. PBMC were pulsed with 1 μg/ml of individual peptide and incubated in the presence of 10 μg/ml Brefeldin A (Sigma, St. Louis, Mo., USA) and 10 μg/ml GolgiStop (BD) for 6-8 h. […] Samples were analyzed on a FACS Canto II.

CLL patient CD8+ T cells = assay: HLA:peptide tetramer staining; type: cell-based, human
Procedure: The frequency of peptide-specific CD8^+ T cells was determined by staining with anti-CD8 and HLA:peptide-tetramer-PE

[2] = tested on: CD8+ T cells of healthy donors; assay: In vitro T-cell priming with aAPCs loaded with peptide/MHC complexes and anti-CD28 antibody; type: cell-based, human; conditions: pMHC multimer readout
Procedure: In order to obtain information regarding the immunogenicity of the TUMAPs of the present invention, the inventors performed investigations using an in vitro T-cell priming assay based on repeated stimulations of CD8+ T cells with artificial antigen presenting cells (aAPCs) loaded with peptide/MHC complexes and anti-CD28 antibody. […]
Generation of pMHC/anti-CD28 coated beads, T-cell stimulations and readout was performed in a highly defined in vitro system using four different pMHC molecules per stimulation condition and 8 different pMHC molecules per readout condition. […]
800.000 beads/200 μl were coated in 96-well plates in the presence of 4×12.5 ng different biotin-pMHC, washed and 600 ng biotin anti-CD28 were added subsequently in a volume of 200 μl. […] For the pMHC multimer readout using 8 different pMHC molecules per condition, a two-dimensional combinatorial coding approach was used as previously described (Andersen et al., Nat. Protoc. 7 (2012): 891-902) with minor modifications encompassing coupling to 5 different fluorochromes. […] Peptide specific cells were calculated as percentage of total CD8+cells. […] In vitro priming of specific multimer+ CD8+ lymphocytes was detected by comparing to negative control stimulations.

Peptide exchange (MHC class I binding score) (MHC class I): ++++ (>=75% = ++++)
Substance: 229 (FRVGNVQEL; listed as Homo sapiens) [compound 229]

Substance: SSSGLHPPK (listed as Homo sapiens) [SEQ ID NO: 77]
intracellular cytokine staining for IFNγ and TNFα [1]: confirmed
tetramer staining of CD8+ T cells (CLL patient CD8+ T cells): confirmed

Substance: KFAEEFYSF (listed as Homo sapiens) [SEQ ID NO: 20]
in vitro T-cell responses, positive donors of tested donors [2]: 2 of 5

Peptide exchange (MHC class I binding score) (MHC class I): ++++ (>=75% = ++++)
Substance: 239 (SENAFYLSP; listed as Homo sapiens) [compound 239]
